Laboratory results reported in patent US8822754B2, “Ecdysone receptor-based inducible gene expression system” (Intrexon Corporation, priority 2000, dated 2014).

Columns and labels:
GAL4EcR + VP16RXR = experiment: Transactivation of reporter genes through switch 1.1 in 3T3 cells; settings: GAL4CfEcRDEF/VP16MmRXRDEF (switch 1.1), 1.0 μM ligand, 48 hr
Excerpt: (§1) In various cellular backgrounds, including mammalian cells, insect ecdysone receptor (EcR) heterodimerizes with retinoid X receptor (RXR) and, upon binding of ligand, transactivates genes under the control of ecdysone response elements. Applicants constructed several EcR-based gene expression cassettes based on the spruce budworm Choristoneura fumiferana EcR (“CfEcR”; full length polynucleotide and amino acid sequences are set forth in SEQ ID NO: 49 and SEQ ID NO: 50, respectively), C. fumiferana ultraspiracle (“CfUSP”; full length polynucleotide and amino acid sequences are set forth in SEQ ID NO: 51 and SEQ ID NO: 52, respectively), and mouse Mus musculus RXRα (MmRXRα; full length polynucleotide and amino acid sequences are set forth in SEQ ID NO: 53 and SEQ ID NO: 54, respectively). The prepared receptor constructs comprise a ligand binding domain of EcR and of RXR or of USP; a DNA binding domain of GAL4 or of EcR; and an activation domain of VP16. The reporter constructs include a reporter gene, luciferase or LacZ, operably linked to a synthetic promoter construct that comprises either GAL4 or EcR/USP binding sites (response elements). Various combinations of these receptor and reporter constructs were cotransfected into CHO, NIH3T3, CV1 and 293 cells. […] Reporter gene expression activities were assayed at 24 hr or 48 hr after ligand addition.
(§2) The same procedures described for CHO cells were followed for 3T3 cells as well with two modifications. The cells were plated when they reached 50% confluency. 125,000 or 50,000 or 25,000 cells were plated per well of 6- or 12- or 24-well plates respectively. The GAl4EcR/VP16RXR and reporter vector DNAs were transfected into NIH3T3 cells, the transfected cells were grown in medium containing PonA, MurA, N-(2-ethyl-3-methoxybenzoyl)-N′-(3,5-dimethylbenzoyl)-N′-t-butylhydrazine, or N-(3,4-(1,2-ethylenedioxy)-2-methylbenzoyl)-N′-(3,5-dimethylbenzoyl)-N′-tert-butylhydrazine for 48 hr. The ligand treatments were performed as described in the CHO cell section above.
(§3) Cells were harvested 24-48 hr after adding ligands. 125, 250, or 500 μl of passive lysis buffer (part of Dual-luciferase™ reporter assay system from Promega Corporation) were added to each well of 24- or 12- or […] respectively. The plates were placed on a rotary shaker for 15 min. Twenty μl of lysate was assayed. Luciferase activity was measured using Dual-luciferase™ reporter assay system from Promega Corporation following the manufacturer's instructions. β-Galactosidase was measured using Galacto-Star™ assay kit from TROPIX following the manufacturer's instructions. All luciferase and β-galactosidase activities were normalized using Renilla luciferase as a standard. Fold activities were calculated by dividing normalized relative light units (“RLU”) in ligand treated cells with normalized RLU in DMSO treated cells (untreated control).

GAL4RXR + VP16CfEcR = experiment: Transactivation of reporter genes through switch 1.3 in 3T3 cells; settings: GAL4MmRXRDEF/VP16CfEcRCDEF (switch 1.3), 1.0 μM ligand
Excerpt: as §1
MmRXRDEF (SEQ ID NO: 22) was fused to a GAL4DNABD (SEQ ID NO: 41) and CfEcRCDEF (SEQ ID NO: 1) was fused to a VP16AD (SEQ ED NO: 45).
as §2, §3

CfEcR = experiment: Comparison of switches in the mammalian cell lines tested (Tables 1-4); type: cell-based, Choristoneura fumiferana; settings: see Tables 1-4
Description: Several commercially available lipofactors as well as electroporation methods were evaluated and the best conditions for transfection of each cell line were developed. CHO, NIH3T3, 293 and CV1 cells were grown to 60% confluency. DNAs corresponding, to the various switch constructs outlined in Examples 1.1 through 1.10 were transfected into CHO cells, NIH3T3 cells, 293 cells, or CV1 cells as follows.
Cells were harvested 24-48 hr after adding ligands. […] Twenty μl of lysate was assayed.

CfEcR/RXR-based switch = experiment: Luciferase reporter assay of truncated CfEcR and MmRXR receptor pairs in NIH3T3 cells (Example 2); type: cell-based, Choristoneura fumiferana; settings: NIH3T3 cells, 0, 1, 5 or 25 uM ligand, 48 hr; FIGS. 11-14
Description: Briefly, polynucleotides encoding EcR or RXR receptors were truncated at the junctions of A/B, C, D, E and F domains and fused to either a GAL4 DNA binding domain encoding polynucleotide (SEQ ID NO: 41) for CfEcR, or a VP16 activation domain encoding polynucleotide (SEQ ID NO: 45) for MmRXR as described in Example 1. The resulting receptor truncation/fusion polypeptides were assayed in NIH3T3 cells. Plasmid pFRLUC (Stratagene) encoding a luciferase polypeptide was used as a reporter gene construct and pTKRL (Promega) encoding a Renilla luciferase polypeptide under the control of the constitutive TK promoter was used to normalize the transfections as described above. The analysis was performed in triplicates and mean luciferase counts were determined as described above.
Gene expression cassettes comprising polynucleotides encoding either full length or truncated CfEcR polypeptides fused to a GALA. […] The cells were harvested, lysed and luciferase reporter activity was measured in the cell lysates. […]

Row | Structure (SMILES) | Mean Fold Induction at 1.0 μM Concentration (GAL4EcR + VP16RXR) [fold] | Mean Fold Induction at 1.0 μM Concentration (GAL4RXR + VP16CfEcR) [fold] | potency as activators of CfEcR as compared to DmEcR (CfEcR) | sensitivity of the EcR/RXR switch to the ligand (CfEcR/RXR-based switch)
1 | CC(C)CC[C@@H](O)[C@](C)(O)[C@H]1CC[C@@]2(O)C3=CC(=O)[C@]4(O)C[C@@H](O)[C@@H](O)C[C@]4(C)[C@H]3[C@H](O)C[C@]12C [Muristerone A, reference compound] | 1.0 | 1.0 |  | 
2 | Cc1cc(C)cc(C(=O)N(NC(=O)c2ccc3c(c2C)OCCO3)C(C)(C)C)c1 [N-(3,4-(1,2-ethylenedioxy)-2-methylbenzoyl)-N′-(3,5-dimethylbenzoyl)-N′-tert-butylhydrazine] | 601 | 54 | more potent activators of CfEcR | 
3 | CC(C)CC[C@@H](O)[C@](C)(O)[C@H]1CC[C@@]2(O)C3=CC(=O)[C@@H]4C[C@@H](O)[C@@H](O)C[C@]4(C)[C@H]3CC[C@]12C [Ponasterone A, reference compound] | 1.0 | 1.0 |  | insensitive
